Test results reported in patent publication US12318373B2, “Methods of treating gastrointestinal stromal tumors” (Deciphera Pharmaceuticals, LLC, priority 2019, dated 2025).

Test system: GIST patients
Test: Example 3: safety, TEAEs in GIST patients at ≥100 mg daily
Format: in vivo, human
Description: Grade 3 or 4 treatment-emergent adverse events (TEAEs) in >5% of patients were lipase increased (18%; n=33), anemia (11%; n=20), hypertension (7%; n=13) and abdominal pain (6%; n=11). 13% of patients (n=24) experienced TEAEs leading to study treatment discontinuation, 17% of patients (n=31) experienced TEAEs leading to dose reduction and 49% of patients (n=88) had TEAEs leading to study drug interruption. Table 3 lists TEAEs>10% for GIST patients treated with ≥100 mg of ripretinib daily.

[1] = 1st column pair, head not printed (likely Grade 1/2)
[2] = 3rd column pair, head not printed (likely all grades)

CCn1c(=O)c(-c2cc(NC(=O)Nc3ccccc3)c(F)cc2Br)cc2cnc(NC)cc21 [ripretinib]
Patients with TEAEs leading to dose reduction, %: 17%
Patients with TEAEs leading to dose reduction, number: 31
Patients with TEAEs leading to study drug interruption, %: 49%
Patients with TEAEs leading to study drug interruption, number: 88
Patients with TEAEs leading to study treatment discontinuation, %: 13%
Patients with TEAEs leading to study treatment discontinuation, number: 24
Abdominal pain: patients, % [1]: (18%)
Abdominal pain: patients, number [1]: 33
Actinic keratosis: patients, % [1]: (14%)
Actinic keratosis: patients, number [1]: 25
Alopecia: patients, % [1]: (57%)
Alopecia: patients, number [1]: 102
Amylase increased: patients, % [1]: (11%)
Amylase increased: patients, number [1]: 19
Anemia: patients, % [1]: (10%)
Anemia: patients, number [1]: 18
Arthralgia: patients, % [1]: (22%)
Arthralgia: patients, number [1]: 40
Back Pain: patients, % [1]: (17%)
Back Pain: patients, number [1]: 30
Blood bilirubin increase: patients, % [1]: (9%)
Blood bilirubin increase: patients, number [1]: 16
Blood creatine phosphokinase increased: patients, % [1]: (7%)
Blood creatine phosphokinase increased: patients, number [1]: 13
Constipation: patients, % [1]: (37%)
Constipation: patients, number [1]: 67
Cough: patients, % [1]: (21%)
Cough: patients, number [1]: 37
Decreased appetite: patients, % [1]: (34%)
Decreased appetite: patients, number [1]: 60
Diarrhea: patients, % [1]: (28%)
Diarrhea: patients, number [1]: 50
Dizziness: patients, % [1]: (16%)
Dizziness: patients, number [1]: 29
Dry skin: patients, % [1]: (21%)
Dry skin: patients, number [1]: 37
Dysgeusia: patients, % [1]: (11%)
Dysgeusia: patients, number [1]: 20
Dyspnea: patients, % [1]: (18%)
Dyspnea: patients, number [1]: 32
Fatigue: patients, % [1]: (53%)
Fatigue: patients, number [1]: 94
Headache: patients, % [1]: (18%)
Headache: patients, number [1]: 33
Hypertension: patients, % [1]: (14%)
Hypertension: patients, number [1]: 25
Hypokalaemia: patients, % [1]: (12%)
Hypokalaemia: patients, number [1]: 21
Hypomagnesaemia: patients, % [1]: (10%)
Hypomagnesaemia: patients, number [1]: 18
Hypophosphataemia: patients, % [1]: (10%)
Hypophosphataemia: patients, number [1]: 17
Insomnia: patients, % [1]: (12%)
Insomnia: patients, number [1]: 21
Lipase increased: patients, % [1]: (10%)
Lipase increased: patients, number [1]: 18
Muscle spasms: patients, % [1]: (26%)
Muscle spasms: patients, number [1]: 47
Myalgia: patients, % [1]: (44%)
Myalgia: patients, number [1]: 79
Nausea: patients, % [1]: (43%)
Nausea: patients, number [1]: 77
Pain in extremity: patients, % [1]: (10%)
Pain in extremity: patients, number [1]: 18
Palmar-plantar erythrodysaesthesia syndrome: patients, % [1]: (40%)
Palmar-plantar erythrodysaesthesia syndrome: patients, number [1]: 71
Pruritus: patients, % [1]: (10%)
Pruritus: patients, number [1]: 18
Rash maculo-papular: patients, % [1]: (10%)
Rash maculo-papular: patients, number [1]: 18
Rash: patients, % [1]: (15%)
Rash: patients, number [1]: 27
Seborrhoeic keratosis: patients, % [1]: (12%)
Seborrhoeic keratosis: patients, number [1]: 21
Skin papilloma: patients, % [1]: (10%)
Skin papilloma: patients, number [1]: 17
Upper respiratory tract infection: patients, % [1]: (10%)
Upper respiratory tract infection: patients, number [1]: 18
Urinary tract infection: patients, % [1]: (9%)
Urinary tract infection: patients, number [1]: 16
Vision blurred: patients, % [1]: (10%)
Vision blurred: patients, number [1]: 17
Vomiting: patients, % [1]: (24%)
Vomiting: patients, number [1]: 42
Weight decreased: patients, % [1]: (29%)
Weight decreased: patients, number [1]: 51
Abdominal pain: patients, % [2]: (25%)
Abdominal pain: patients, number [2]: 44
Actinic keratosis: patients, % [2]: (14%)
Actinic keratosis: patients, number [2]: 25
Alopecia: patients, % [2]: (57%)
Alopecia: patients, number [2]: 102
Amylase increased: patients, % [2]: (12%)
Amylase increased: patients, number [2]: 21
Anemia: patients, % [2]: (21%)
Anemia: patients, number [2]: 38
Arthralgia: patients, % [2]: (22%)
Arthralgia: patients, number [2]: 40
Back Pain: patients, % [2]: (18%)
Back Pain: patients, number [2]: 32
Blood bilirubin increase: patients, % [2]: (12%)
Blood bilirubin increase: patients, number [2]: 21
Blood creatine phosphokinase increased: patients, % [2]: (10%)
Blood creatine phosphokinase increased: patients, number [2]: 18
Constipation: patients, % [2]: (37%)
Constipation: patients, number [2]: 67
Cough: patients, % [2]: (21%)
Cough: patients, number [2]: 37
Decreased appetite: patients, % [2]: (35%)
Decreased appetite: patients, number [2]: 62
Diarrhea: patients, % [2]: (30%)
Diarrhea: patients, number [2]: 53
Dizziness: patients, % [2]: (16%)
Dizziness: patients, number [2]: 29
Dry skin: patients, % [2]: (21%)
Dry skin: patients, number [2]: 37
Dysgeusia: patients, % [2]: (11%)
Dysgeusia: patients, number [2]: 20
Dyspnea: patients, % [2]: (20%)
Dyspnea: patients, number [2]: 36
Fatigue: patients, % [2]: (55%)
Fatigue: patients, number [2]: 98
Headache: patients, % [2]: (19%)
Headache: patients, number [2]: 34
Hypertension: patients, % [2]: (21%)
Hypertension: patients, number [2]: 38
Hypokalaemia: patients, % [2]: (15%)
Hypokalaemia: patients, number [2]: 26
Hypomagnesaemia: patients, % [2]: (10%)
Hypomagnesaemia: patients, number [2]: 18
Hypophosphataemia: patients, % [2]: (14%)
Hypophosphataemia: patients, number [2]: 25
Insomnia: patients, % [2]: (12%)
Insomnia: patients, number [2]: 21
Lipase increased: patients, % [2]: (29%)
Lipase increased: patients, number [2]: 51
Muscle spasms: patients, % [2]: (26%)
Muscle spasms: patients, number [2]: 47
Myalgia: patients, % [2]: (44%)
Myalgia: patients, number [2]: 79
Nausea: patients, % [2]: (44%)
Nausea: patients, number [2]: 78
Pain in extremity: patients, % [2]: (11%)
Pain in extremity: patients, number [2]: 19
Palmar-plantar erythrodysaesthesia syndrome: patients, % [2]: (40%)
Palmar-plantar erythrodysaesthesia syndrome: patients, number [2]: 72
Pruritus: patients, % [2]: (10%)
Pruritus: patients, number [2]: 18
Rash maculo-papular: patients, % [2]: (10%)
Rash maculo-papular: patients, number [2]: 18
Rash: patients, % [2]: (15%)
Rash: patients, number [2]: 27
Seborrhoeic keratosis: patients, % [2]: (12%)
Seborrhoeic keratosis: patients, number [2]: 21
Skin papilloma: patients, % [2]: (10%)
Skin papilloma: patients, number [2]: 17
Upper respiratory tract infection: patients, % [2]: (10%)
Upper respiratory tract infection: patients, number [2]: 18
Urinary tract infection: patients, % [2]: (11%)
Urinary tract infection: patients, number [2]: 20
Vision blurred: patients, % [2]: (10%)
Vision blurred: patients, number [2]: 17
Vomiting: patients, % [2]: (25%)
Vomiting: patients, number [2]: 44
Weight decreased: patients, % [2]: (29%)
Weight decreased: patients, number [2]: 52
Tolerability (GIST patients): generally well tolerated
Abdominal pain: patients, number (head not printed (Grade 3/4)): 11
Actinic keratosis: patients, % (head not printed (Grade 3/4)): (0%)
Actinic keratosis: patients, number (head not printed (Grade 3/4)): 0
Alopecia: patients, % (head not printed (Grade 3/4)): (0%)
Alopecia: patients, number (head not printed (Grade 3/4)): 0
Amylase increased: patients, % (head not printed (Grade 3/4)): (1%)
Amylase increased: patients, number (head not printed (Grade 3/4)): 2
Anemia: patients, number (head not printed (Grade 3/4)): 20
Arthralgia: patients, % (head not printed (Grade 3/4)): (0%)
Arthralgia: patients, number (head not printed (Grade 3/4)): 0
Back Pain: patients, % (head not printed (Grade 3/4)): (1%)
Back Pain: patients, number (head not printed (Grade 3/4)): 2
Blood bilirubin increase: patients, % (head not printed (Grade 3/4)): (3%)
Blood bilirubin increase: patients, number (head not printed (Grade 3/4)): 5
Blood creatine phosphokinase increased: patients, % (head not printed (Grade 3/4)): (3%)
Blood creatine phosphokinase increased: patients, number (head not printed (Grade 3/4)): 5
Constipation: patients, % (head not printed (Grade 3/4)): (0%)
Constipation: patients, number (head not printed (Grade 3/4)): 0
Cough: patients, % (head not printed (Grade 3/4)): (0%)
Cough: patients, number (head not printed (Grade 3/4)): 0
Decreased appetite: patients, % (head not printed (Grade 3/4)): (1%)
Decreased appetite: patients, number (head not printed (Grade 3/4)): 2
Diarrhea: patients, % (head not printed (Grade 3/4)): (2%)
Diarrhea: patients, number (head not printed (Grade 3/4)): 3
Dizziness: patients, % (head not printed (Grade 3/4)): (0%)
Dizziness: patients, number (head not printed (Grade 3/4)): 0
Dry skin: patients, % (head not printed (Grade 3/4)): (0%)
Dry skin: patients, number (head not printed (Grade 3/4)): 0
Dysgeusia: patients, % (head not printed (Grade 3/4)): (0%)
Dysgeusia: patients, number (head not printed (Grade 3/4)): 0
Dyspnea: patients, % (head not printed (Grade 3/4)): (2%)
Dyspnea: patients, number (head not printed (Grade 3/4)): 4
Fatigue: patients, % (head not printed (Grade 3/4)): (2%)
Fatigue: patients, number (head not printed (Grade 3/4)): 4
Headache: patients, % (head not printed (Grade 3/4)): (1%)
Headache: patients, number (head not printed (Grade 3/4)): 1
Hypertension: patients, number (head not printed (Grade 3/4)): 13
Hypokalaemia: patients, % (head not printed (Grade 3/4)): (3%)
Hypokalaemia: patients, number (head not printed (Grade 3/4)): 5
Hypomagnesaemia: patients, % (head not printed (Grade 3/4)): (0%)
Hypomagnesaemia: patients, number (head not printed (Grade 3/4)): 0
Hypophosphataemia: patients, % (head not printed (Grade 3/4)): (5%)
Hypophosphataemia: patients, number (head not printed (Grade 3/4)): 8
Insomnia: patients, % (head not printed (Grade 3/4)): (0%)
Insomnia: patients, number (head not printed (Grade 3/4)): 0
Lipase increased: patients, number (head not printed (Grade 3/4)): 33
Muscle spasms: patients, % (head not printed (Grade 3/4)): (0%)
Muscle spasms: patients, number (head not printed (Grade 3/4)): 0
Myalgia: patients, % (head not printed (Grade 3/4)): (0%)
Myalgia: patients, number (head not printed (Grade 3/4)): 0
Nausea: patients, % (head not printed (Grade 3/4)): (1%)
Nausea: patients, number (head not printed (Grade 3/4)): 1
Pain in extremity: patients, % (head not printed (Grade 3/4)): (1%)
Pain in extremity: patients, number (head not printed (Grade 3/4)): 1
Palmar-plantar erythrodysaesthesia syndrome: patients, % (head not printed (Grade 3/4)): (1%)
Palmar-plantar erythrodysaesthesia syndrome: patients, number (head not printed (Grade 3/4)): 1
Pruritus: patients, % (head not printed (Grade 3/4)): (0%)
Pruritus: patients, number (head not printed (Grade 3/4)): 0
Rash maculo-papular: patients, % (head not printed (Grade 3/4)): (0%)
Rash maculo-papular: patients, number (head not printed (Grade 3/4)): 0
Rash: patients, % (head not printed (Grade 3/4)): (0%)
Rash: patients, number (head not printed (Grade 3/4)): 0
Seborrhoeic keratosis: patients, % (head not printed (Grade 3/4)): (0%)
Seborrhoeic keratosis: patients, number (head not printed (Grade 3/4)): 0
Skin papilloma: patients, % (head not printed (Grade 3/4)): (0%)
Skin papilloma: patients, number (head not printed (Grade 3/4)): 0
Upper respiratory tract infection: patients, % (head not printed (Grade 3/4)): (0%)
Upper respiratory tract infection: patients, number (head not printed (Grade 3/4)): 0
Urinary tract infection: patients, % (head not printed (Grade 3/4)): (2%)
Urinary tract infection: patients, number (head not printed (Grade 3/4)): 4
Vision blurred: patients, % (head not printed (Grade 3/4)): (0%)
Vision blurred: patients, number (head not printed (Grade 3/4)): 0
Vomiting: patients, % (head not printed (Grade 3/4)): (1%)
Vomiting: patients, number (head not printed (Grade 3/4)): 2
Weight decreased: patients, % (head not printed (Grade 3/4)): (1%)
Weight decreased: patients, number (head not printed (Grade 3/4)): 1
